# Laboratory results: patent US9072734B2, “Quaternary ammonium salt compounds” (Teijin Pharma Limited, priority 2009, dated 2015)
# Structures can show the parent of a compound that is named as a salt.
# Target: T1, human β2 adrenergic receptor (Homo sapiens, UniProt P07550)
# T1 construct: expressed in transfected cells; host or cells: CHO-K1
# Test: Whole-cell cAMP Flashplate assay using CHO-K1 cells stably expressing human β2 adrenergic receptor
# Assay type: cell-based
# Details: cAMP production
# Description: The β2 adrenergic receptor, which couples to Gs proteins, activates adenylate cyclase upon agonist binding to the receptor. As a result, cAMP is produced in cells. The activation ability of the β2 adrenergic receptor can be measured by measuring the amount of the cAMP with cAMP-Screen System (Applied Biosystems).
# CHO-K1 cells expressing the human β2 adrenergic receptor suspended in Ham's F-12 media containing 10% FBS were seeded into 96-well plates at a volume of 100 μL/well. Next day, they were washed with 200 μL PBS(−), to which 80 μL of 0.5 mM IBMX solution (Ham's F-12 media containing 0.05% BSA) was then added, followed by incubation for 20 minutes at 37° C. in the presence of 5% carbon dioxide. 20 μL of 9 concentrations of test compound solutions (0.5 mM IBMX solution containing 1% DMSO) prepared at concentrations in a range of 0.01-1000 nM with 2-fold serial dilution) were added, followed by incubation for 20 minutes at 37° C. in the presence of 5% carbon dioxide. Then, 100 μL of Assay/Lysis Buffer (a reagent that comes with cAMP Screen System) was added. The cells were lysed by pipetting, further incubated for 30 minutes at 37° C., and then frozen at −80° C. After several days, samples, thawed at room temperature, were treated according to the protocol of cAMP Screen System, and then chemiluminescence was measured by EnVision (PerkinElmer, Inc.). The amount of cAMP was calculated from the standard curve for the standard attached to cAMP Screen System.
# The concentrations of a test compound at which 50% of its maximal effect is reached (EC50 values) were analyzed by a four-parameter logistic model using XLfit4 (IDBS, Ltd.) for the amounts of cAMP production at different concentrations of the test compounds.
# T1 sequence (P07550 whole entry): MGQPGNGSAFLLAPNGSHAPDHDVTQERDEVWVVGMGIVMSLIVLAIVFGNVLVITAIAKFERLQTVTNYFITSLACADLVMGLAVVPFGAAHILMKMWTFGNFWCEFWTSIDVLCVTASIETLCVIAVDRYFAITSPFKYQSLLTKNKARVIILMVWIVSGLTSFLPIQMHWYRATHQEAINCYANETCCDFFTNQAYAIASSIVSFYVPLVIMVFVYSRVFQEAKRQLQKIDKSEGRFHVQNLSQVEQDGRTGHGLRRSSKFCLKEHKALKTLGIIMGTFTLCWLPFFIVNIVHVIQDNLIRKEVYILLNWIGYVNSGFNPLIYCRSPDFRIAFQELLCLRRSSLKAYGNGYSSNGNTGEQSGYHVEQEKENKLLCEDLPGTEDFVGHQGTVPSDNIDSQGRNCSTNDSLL
row,Compound,EC50
1,"C[N+]1(C)CCC(OC(=O)Nc2cc(CCCC(=O)NCc3ccc(CNC[C@H](O)c4ccc(O)c5[nH]c(=O)ccc45)cc3)ccc2-c2ccccc2)CC1 [Example 66, 4-[({5-[3-({[4-({[(2R)-2-hydroxy-2-(8-hydroxy-2-oxo-1,2-dihydroquinolin-5-yl)ethyl]amino}methyl)phenyl]methyl}carbamoyl)propyl]-2-phenylphenyl}carbamoyl)oxy]-1,1-dimethylpiperidin-1-ium trifluoroacetate]",12.6 nM
2,"C[N+]1(C)CCC(OC(=O)Nc2cc(C(=O)OCCCCCCCNCC(O)c3ccc(O)c4[nH]c(=O)ccc34)ccc2-c2ccccc2)CC1 [Example 75, 4-{[5-({[(7-{[(2R)-2-hydroxy-2-(8-hydroxy-2-oxo-1,2-dihydroquinolin-5-yl)ethyl]amino}heptyl)oxy]carbonyl}-2-phenylphenyl)carbamoyl]oxy}-1,1-dimethylpiperidin-1-ium trifluoro acetate]",0.5 nM
3,"C[N+]1(C)[C@@H]2CC(OC(=O)Nc3cc(CCC(=O)Nc4ccc5cc(CNC[C@H](O)c6ccc(O)c7[nH]c(=O)ccc67)ccc5c4)ccc3-c3ccccc3)C[C@H]1[C@@H]1O[C@@H]12 (stereo partly drawn) [Example 40, (1R,2R,4S,5S,7S)-7-({[5-(2-{[6-({[(2R)-2-hydroxy-2-(8-hydroxy-2-oxo-1,2-dihydroquinolin-5-yl)ethyl]amino}methyl)naphthalen-2-yl]carbamoyl}ethyl)-2-phenylphenyl]carbamoyl}oxy)-9,9-dimethyl-3-oxa-9-azatricyclo[3.3.1.0^2,4]nonan-9-ium trifluoroacetate]",3.4 nM
4,"C[N+]1(C)CCC(OC(=O)Nc2cc(OCCOc3ccc(CCNC[C@H](O)c4ccc(O)c5[nH]c(=O)ccc45)cc3)ccc2-c2ccccc2)CC1 [Example 79, 4-{[(5-{2-[4-(2-{[(2R)-2-hydroxy-2-(8-hydroxy-2-oxo-1,2-dihydroquinolin-5-yl)ethyl]amino}ethyl)phenoxy]ethoxy}-2-phenylphenyl)carbamoyl]oxy}-1,1-dimethylpiperidin-1-ium trifluoro acetate]",5.8 nM
5,"C[N+]1(C)[C@@H]2CC(OC(=O)Nc3cc(CCCC(=O)Nc4ccc5cc(CNC[C@H](O)c6ccc(O)c7[nH]c(=O)ccc67)ccc5c4)ccc3-c3ccccc3)C[C@H]1[C@@H]1O[C@@H]12 (stereo partly drawn) [Example 35, (1R,2R,4S,5S,7S)-7-({[5-(3-{[6-({[(2R)-2-hydroxy-2-(8-hydroxy-2-oxo-1,2-dihydroquinolin-5-yl)ethyl]amino}methyl)naphthalen-2-yl]carbamoyl}propyl)-2-phenylphenyl]carbamoyl}oxy)-9,9-dimethyl-3-oxa-9-azatricyclo[3.3.1.0^2,4]nonan-9-ium trifluoroacetate]",2.7 nM
6,"C[N+]1(C)CCC(OC(=O)Nc2cc(OCCCCCCNC[C@H](O)c3ccc(O)c4[nH]c(=O)ccc34)ccc2-c2ccccc2)CC1 [Example 59, 4-[({5-[(6-{[(2R)-2-hydroxy-2-(8-hydroxy-2-oxo-1,2-dihydroquinolin-5-yl)ethyl]amino}hexyl)oxy]-2-phenylphenyl}carbamoyl)oxy]-1,1-dimethylpiperidin-1-ium trifluoroacetate]",0.2 nM
7,"C[N+]1(C)CCC(OC(=O)Nc2cc(OCC(=O)Nc3ccc(CNC[C@H](O)c4ccc(O)c5[nH]c(=O)ccc45)cc3)ccc2-c2ccccc2)CC1 [Example 64, 4-({[5-(2-{[4-({[(2R)-2-hydroxy-2-(8-hydroxy-2-oxo-1,2-dihydroquinolin-5-yl)ethyl]amino}methyl)phenyl]carbamoyl}methoxy)-2-phenylphenyl]carbamoyl}oxy)-1,1-dimethylpiperidin-1-ium trifluoroacetate]",38 nM
8,"C[N+]1(C)CCC(OC(=O)Nc2cc(CCC(=O)NCc3ccc(CNC[C@H](O)c4ccc(O)c5[nH]c(=O)ccc45)cc3)ccc2-c2ccccc2)CC1 [Example 65, 4-[({5-[2-({[4-({[(2R)-2-hydroxy-2-(8-hydroxy-2-oxo-1,2-dihydroquinolin-5-yl)ethyl]amino}methyl)phenyl]methyl}carbamoyl)ethyl]-2-phenylphenyl}carbamoyl)oxy]-1,1-dimethylpiperidin-1-ium trifluoroacetate]",14.5 nM
9,"C[N+]1(C)CCC(OC(=O)Nc2cc(CCC(=O)NCCCCCNC[C@H](O)c3ccc(O)c4[nH]c(=O)ccc34)ccc2-c2ccccc2)CC1 [Example 74, 4-({[5-(2-{[5-{[(2R)-2-hydroxy-2-(8-hydroxy-2-oxo-1,2-dihydroquinolin-5-yl)ethyl]amino}pentyl]carbamoyl}ethyl)-2-phenylphenyl]carbamoyl}oxy)-1,1-dimethylpiperidin-1-ium trifluoroacetate]",4.5 nM
10,"C[N+]1(C)CCC(OC(=O)Nc2cc(/C=C/C(=O)Nc3ccc(CNC[C@H](O)c4ccc(O)c5[nH]c(=O)ccc45)cc3)ccc2-c2ccccc2)CC1 [Example 67, 4-[({5-[(1E)-2-{[4-({[(2R)-2-hydroxy-2-(8-hydroxy-2-oxo-1,2-dihydroquinolin-5-yl)ethyl]amino}methyl)phenyl]carbamoyl}-1-ethen-1-yl]-2-phenylphenyl}carbamoyl)oxy]-1,1-dimethylpiperidin-1-ium trifluoroacetate]",0.4 nM
11,"C[N+]1(CCOc2ccccc2)CCC(OC(=O)Nc2cc(CCC(=O)Nc3ccc(CNC[C@H](O)c4ccc(O)c5[nH]c(=O)ccc45)cc3)ccc2-c2ccccc2)CC1 (stereo partly drawn) [Example 57, 4-({[5-(2-{[4-({[(2R)-2-hydroxy-2-(8-hydroxy-2-oxo-1,2-dihydroquinolin-5-yl)ethyl]amino}methyl)phenyl]carbamoyl}ethyl)-2-phenylphenyl]carbamoyl}oxy)-1-methyl-1-(2-phenoxyethyl)piperidin-1-ium trifluoro acetate]",2.7 nM
12,"C[N+]1(C)CCC(OC(=O)Nc2cc(OCCCCCCCCCNC[C@H](O)c3ccc(O)c4[nH]c(=O)ccc34)ccc2-c2ccccc2)CC1 [Example 60, 4-[({5-[(9-{[(2R)-2-hydroxy-2-(8-hydroxy-2-oxo-1,2-dihydroquinolin-5-yl)ethyl]amino}nonyl)oxy]-2-phenylphenyl}carbamoyl)oxy]-1,1-dimethylpiperidin-1-ium trifluoroacetate]",1.2 nM
